Measurements published in patent US20060128721A1, “Novel formulations of opioid-based treatments of pain comprising substituted 1,4-di-piperidin-4-yl-piperazine derivatives” (priority 2003, published 2006).

Experiments:
[1] = biological target: T1, cloned human h-NK1 receptors expressed in CHO cells (Homo sapiens, UniProt P25103); assay: Binding experiment for h-NK1 receptors ([3H]-Substance P displacement); details: read-out: h-NK1 pIC50 (converted)
T1 construct: expressed in transfected cells; host or cells: CHO cells
T1 sequence (P25103 whole entry): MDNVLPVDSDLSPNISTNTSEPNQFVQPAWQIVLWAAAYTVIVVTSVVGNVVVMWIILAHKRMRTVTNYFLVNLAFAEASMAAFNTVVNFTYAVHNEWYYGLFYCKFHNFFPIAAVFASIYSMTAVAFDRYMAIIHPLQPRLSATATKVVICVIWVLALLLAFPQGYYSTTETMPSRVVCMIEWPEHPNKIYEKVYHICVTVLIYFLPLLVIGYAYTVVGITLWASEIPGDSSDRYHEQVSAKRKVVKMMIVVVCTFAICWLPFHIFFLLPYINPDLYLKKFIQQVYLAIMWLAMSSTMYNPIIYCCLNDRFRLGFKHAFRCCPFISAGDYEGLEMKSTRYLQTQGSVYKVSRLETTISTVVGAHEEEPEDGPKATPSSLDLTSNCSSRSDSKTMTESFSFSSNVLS
Experimental: (§1) The compounds according to the invention were investigated for interaction with various neurotransmitter receptors, ion channels and transporter binding sites using the radioligand binding technique. Membranes from tissue homogenates or from cells, expressing the receptor or transporter of interests, were incubated with a radioactively labelled substance ([^3H]- or [^125I] ligand) to label a particular receptor. […] Following incubation, labelled membranes were harvested and rinsed with excessive cold buffer to remove non-bound radioactivity by rapid filtration under suction. Membrane bound radioactivity was counted in a scintillation counter and results were expressed in counts per minute (cpm).
(§2) The compounds were dissolved in DMSO and tested at 10 concentrations ranging from 10^−10 to 10^−5 M.
(§3) The ability of the compounds according to the invention to displace [^3H]-Substance P from cloned human h-NK1 receptors expressed in CHO cells, to displace [^3H]-SR-48968 from cloned human h-NK2 receptors expressed in Sf9 cells, and to displace [^3H]-SR-142801 from cloned human h-NK3 receptors expressed in CHO cells was evaluated.

[2] = biological target: T2, cloned human h-NK2 receptors expressed in Sf9 cells (Homo sapiens, UniProt P21452); assay: Binding experiment for h-NK2 receptors ([3H]-SR-48968 displacement); details: [3H]-SR-48968, Sf9 cells; read-out: h-NK2 pIC50 (converted)
T2 construct: expressed in transfected cells; host or cells: Sf9 cells
T2 sequence (P21452 1-398): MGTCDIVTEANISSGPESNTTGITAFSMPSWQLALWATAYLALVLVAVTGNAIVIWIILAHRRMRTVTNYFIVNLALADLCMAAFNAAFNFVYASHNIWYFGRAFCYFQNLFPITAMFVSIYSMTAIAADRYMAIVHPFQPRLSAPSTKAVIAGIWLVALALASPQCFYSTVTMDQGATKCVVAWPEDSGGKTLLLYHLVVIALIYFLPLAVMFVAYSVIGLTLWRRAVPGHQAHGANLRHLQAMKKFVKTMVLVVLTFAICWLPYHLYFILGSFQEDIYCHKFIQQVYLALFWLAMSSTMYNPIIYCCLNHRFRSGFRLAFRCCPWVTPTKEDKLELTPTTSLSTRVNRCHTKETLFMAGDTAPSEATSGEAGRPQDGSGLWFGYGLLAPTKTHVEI
Experimental: as §1, §2, §3

[3] = biological target: T3, cloned human h-NK3 receptors expressed in CHO cells (Homo sapiens, UniProt P29371); assay: Binding experiment for h-NK3 receptors ([3H]-SR-142801 displacement); details: [3H]-SR-142801, CHO cells; read-out: h-NK3 pIC50 (converted)
T3 construct: expressed in transfected cells; host or cells: CHO cells
T3 sequence (P29371 1-465): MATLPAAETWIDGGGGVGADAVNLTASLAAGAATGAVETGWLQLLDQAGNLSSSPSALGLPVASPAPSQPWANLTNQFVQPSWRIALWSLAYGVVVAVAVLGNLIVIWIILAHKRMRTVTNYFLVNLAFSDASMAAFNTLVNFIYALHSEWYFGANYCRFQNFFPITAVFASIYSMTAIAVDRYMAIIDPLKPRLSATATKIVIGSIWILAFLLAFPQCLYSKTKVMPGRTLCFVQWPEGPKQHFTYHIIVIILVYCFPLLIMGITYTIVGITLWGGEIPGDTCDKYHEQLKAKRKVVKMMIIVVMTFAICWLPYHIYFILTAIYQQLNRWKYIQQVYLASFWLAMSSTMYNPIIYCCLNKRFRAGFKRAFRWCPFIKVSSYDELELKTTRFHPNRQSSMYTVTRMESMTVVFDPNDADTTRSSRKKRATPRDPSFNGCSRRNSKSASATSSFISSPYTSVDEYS
Experimental: as §1, §2, §3

Compound	IC50 [1] [nM]	IC50 [2] [nM]	IC50 [3] [nM]
Cc1cc(C)cc(C(=O)N2CCC(N3CCN(C4CCN(C(=O)c5cc(C(F)(F)F)cc(C(F)(F)F)c5)C(Cc5ccccc5)C4)CC3)CC2Cc2ccccc2)c1 (single isomer, unassigned) [Compound 10]	50.1	398	631
Cc1cc(C)cc(C(=O)N2CCC(N3CCN(C4CCN(C(=O)c5cc(C(F)(F)F)cc(C(F)(F)F)c5)C(Cc5ccccc5)C4)CC3)CC2Cc2ccccc2)c1 (single isomer, unassigned) [Compound 11]	39.8	631	251
NC(Cc1ccc(O)cc1)C(=O)N1CCC(N2CCN(C3CCN(C(=O)c4cc(C(F)(F)F)cc(C(F)(F)F)c4)C(Cc4ccccc4)C3)CC2)CC1 (centres unmarked) [Compound 13]	1.26	631	1000
O=C(c1cc(C(F)(F)F)cc(C(F)(F)F)c1)N1CCC(N2CCN(C3CCN(Cc4cc(C(F)(F)F)cc(C(F)(F)F)c4)CC3)CC2)CC1Cc1ccccc1 (centres unmarked) [Compound 26]	39.8	1000	1000
O=C(c1cc(F)c(F)cc1F)N1CCC(N2CCN([C@H]3CCN(C(=O)c4cc(C(F)(F)F)cc(C(F)(F)F)c4)[C@H](Cc4ccccc4)C3)CC2)CC1 [Compound 62]	0.631	398	251
COc1cc(C(=O)N2CCC(N3CCN([C@H]4CCN(C(=O)c5cc(C(F)(F)F)cc(C(F)(F)F)c5)[C@H](Cc5ccccc5)C4)CC3)CC2)cc(OC)c1OC [Compound 65]	3.98	631	251
CC(C)(C)OC(=O)N1CCCCC1C(=O)N1CCC(N2CCN([C@H]3CCN(C(=O)c4cc(C(F)(F)F)cc(C(F)(F)F)c4)[C@H](Cc4ccccc4)C3)CC2)CC1 (some centres unmarked) [Compound 89]	2.51	631	631
CC(C)(C)OC(=O)N1Cc2ccccc2C[C@H]1C(=O)N1CCC(N2CCN([C@H]3CCN(C(=O)c4cc(C(F)(F)F)cc(C(F)(F)F)c4)[C@H](Cc4ccccc4)C3)CC2)CC1 [Compound 90]	31.6	316	126
Cc1cccc(C)c1NC(=O)CN1CCC(N2CCN([C@H]3CCN(C(=O)c4cc(C(F)(F)F)cc(C(F)(F)F)c4)[C@H](Cc4ccccc4)C3)CC2)CC1 [Compound 97]	0.316	501	398
COc1cc(CC(=O)N2CCC(N3CCN([C@H]4CCN(C(=O)c5cc(C(F)(F)F)cc(C(F)(F)F)c5)[C@H](Cc5ccccc5)C4)CC3)CC2)cc(OC)c1OC [Compound 106]	1	1000	501
O=C(C(c1ccccc1)N1CCCC1)N1CCC(N2CCN(C3CCN(C(=O)c4cc(C(F)(F)F)cc(C(F)(F)F)c4)C(Cc4ccccc4)C3)CC2)CC1 (centres unmarked) [Compound 113]	1	398	398
O=C(C(c1ccccc1)N1CCOCC1)N1CCC(N2CCN([C@H]3CCN(C(=O)c4cc(C(F)(F)F)cc(C(F)(F)F)c4)[C@H](Cc4ccccc4)C3)CC2)CC1 (some centres unmarked) [Compound 116]	2.51	794	158
COc1ccc(C)cc1S(=O)(=O)N1CCC(N2CCN(C3CCN(C(=O)c4cc(C(F)(F)F)cc(C(F)(F)F)c4)C(Cc4ccccc4)C3)CC2)CC1 (centres unmarked) [Compound 119]	25.1	1000	1000
Cc1nnsc1C(=O)N1CCC(N2CCN([C@@H]3CCN(C(=O)c4cc(C(F)(F)F)cc(C(F)(F)F)c4)[C@H](Cc4ccccc4)C3)CC2)CC1 [Compound 139]	1.58	794	316
Cc1nnsc1C(=O)N1CCC(N2CCN([C@H]3CCN(C(=O)c4cc(C(F)(F)F)cc(C(F)(F)F)c4)[C@@H](Cc4ccccc4)C3)CC2)CC1 [Compound 140]	3.16	3980	5010
O=C(c1snnc1CO)N1CCC(N2CCN(C3CCN(C(=O)c4cc(C(F)(F)F)cc(C(F)(F)F)c4)C(Cc4ccccc4)C3)CC2)CC1 (centres unmarked) [Compound 144]		1260	631

Now from value to compound:

IC50 [1] [nM]	IC50 [2] [nM]	IC50 [3] [nM]	Compound
2.51	1580	6310	O=C(c1cc(C(F)(F)F)cc(C(F)(F)F)c1)N1CCC(N2CCN(C3CCNCC3)CC2)CC1Cc1ccccc1 (centres unmarked) [Compound 2]
1.58	6310	200	Cc1oncc1C(=O)N1CCC(N2CCN(C3CCN(C(=O)c4cc(C(F)(F)F)cc(C(F)(F)F)c4)C(Cc4ccccc4)C3)CC2)CC1 (centres unmarked) [Compound 4]
0.1	794	501	O=C(c1ccsc1)N1CCC(N2CCN(C3CCN(C(=O)c4cc(C(F)(F)F)cc(C(F)(F)F)c4)C(Cc4ccccc4)C3)CC2)CC1 (centres unmarked) [Compound 5]
1.26	631	501	Cn1cccc1CN1CCC(N2CCN(C3CCN(C(=O)c4cc(C(F)(F)F)cc(C(F)(F)F)c4)C(Cc4ccccc4)C3)CC2)CC1 (centres unmarked) [Compound 9]
0.794	1000	794	O=C(c1cc(C(F)(F)F)cc(C(F)(F)F)c1)N1CCC(N2CCN(C3CCN(C(=O)n4ccnc4)CC3)CC2)CC1Cc1ccccc1 (centres unmarked) [Compound 12]
1	501	158	O=C(c1cc(C(F)(F)F)cc(C(F)(F)F)c1)N1CC[C@H](N2CCN(C3CCN(c4ncccn4)CC3)CC2)C[C@H]1Cc1ccccc1 [Compound 16]
0.398	631	316	Cc1cc(C)cc(CN2CCC(N3CCN([C@H]4CCN(C(=O)c5cc(C(F)(F)F)cc(C(F)(F)F)c5)[C@H](Cc5ccccc5)C4)CC3)CC2)c1 [Compound 22]
1.58	631	158	O=C(c1cccc(Cl)c1)N1CCC(N2CCN([C@H]3CCN(C(=O)c4cc(C(F)(F)F)cc(C(F)(F)F)c4)[C@H](Cc4ccccc4)C3)CC2)CC1 [Compound 32]
1	794	794	O=C(c1ccccc1O)N1CCC(N2CCN([C@H]3CCN(C(=O)c4cc(C(F)(F)F)cc(C(F)(F)F)c4)[C@H](Cc4ccccc4)C3)CC2)CC1 [Compound 36]
3.98	501	251	Cc1cccc(C(=O)N2CCC(N3CCN([C@H]4CCN(C(=O)c5cc(C(F)(F)F)cc(C(F)(F)F)c5)[C@H](Cc5ccccc5)C4)CC3)CC2)c1 [Compound 37]
0.794	1000	1000	N#Cc1cccc(C(=O)N2CCC(N3CCN([C@H]4CCN(C(=O)c5cc(C(F)(F)F)cc(C(F)(F)F)c5)[C@H](Cc5ccccc5)C4)CC3)CC2)c1 [Compound 39]
1.26	631	398	O=C(c1cc(F)cc(F)c1)N1CCC(N2CCN([C@H]3CCN(C(=O)c4cc(C(F)(F)F)cc(C(F)(F)F)c4)[C@H](Cc4ccccc4)C3)CC2)CC1 [Compound 51]
1	501	200	Cc1ccc(O)c(C(=O)N2CCC(N3CCN([C@H]4CCN(C(=O)c5cc(C(F)(F)F)cc(C(F)(F)F)c5)[C@H](Cc5ccccc5)C4)CC3)CC2)c1 [Compound 56]
6.31	316	398	O=C(c1ccccn1)N1CCC(N2CCN([C@H]3CCN(C(=O)c4cc(C(F)(F)F)cc(C(F)(F)F)c4)[C@H](Cc4ccccc4)C3)CC2)CC1 [Compound 79]
0.501	794	251	O=C(c1cccnc1)N1CCC(N2CCN([C@H]3CCN(C(=O)c4cc(C(F)(F)F)cc(C(F)(F)F)c4)[C@H](Cc4ccccc4)C3)CC2)CC1 [Compound 80]
0.631	1580	1580	COCC(=O)N1CCC(N2CCN([C@H]3CCN(C(=O)c4cc(C(F)(F)F)cc(C(F)(F)F)c4)[C@H](Cc4ccccc4)C3)CC2)CC1 [Compound 104]
